According to PubChem BioAssay AID2060912 (Molecular Pharmacology Branch, DTP, NCI, 2025):

Tested on: HUVEC/MSC spheroids viability
Assay: Human HUVEC/MSC cell line growth inhibition [KRAS2];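 on viability, T/C: percent of DMSO vehicle control luminescence so 100% = untreated viability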
Settings: for IC50: curve of first compound; for viability, T/C: stronger effect = lower value
How it was run: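 Endothelial cells (HUVEC) plus mesenchymal stem cells, cultured at 37 °C/5% CO2 and assembled into spheroids without cancer cells, served as a stromal control. Drug pairs and single agents spanned half-log ranges anchored to clinical Cmax.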

**Q.** `CC1COCCN1c1cc(-c2ccnn2C)c2ccnc(-c3ccn[nH]3)c2n1` (centres undefined) + C=CC(=O)N1CCN(c2nc(OCC3CCCN3C)nc3c2CCN(c2cccc4cccc(C)c24)C3)CC1CC#N was tested. Which IC50 (second compound 0.00949 µM) did it give?
**A.** 1.21 µM

**Q.** What about the IC50 (second compound 0.03 µM) of the same molecule?
**A.** 0.916 µM

**Q.** What about the IC50 (second compound 0.0949 µM) of the same molecule?
**A.** 0.635 µM

**Q.** What about the IC50 (second compound 0.3 µM) of the same molecule?
**A.** 0.661 µM

**Q.** And the IC50 (second compound 0.949 µM)?
**A.** 0.362 µM

**Q.** And the IC50 (second compound 3 µM)?
**A.** > 3 µM

**Q.** And the viability, T/C (second compound 0.00949 µM, first compound 0.00949 µM)?
**A.** 79.3%

**Q.** And the viability, T/C (second compound 0.00949 µM, first compound 0.03 µM)?
**A.** 76.5%

**Q.** And the viability, T/C (second compound 0.00949 µM, first compound 0.0949 µM)?
**A.** 77%

**Q.** What about the viability, T/C (second compound 0.00949 µM, first compound 0.3 µM) of the same molecule?
**A.** 77%

**Q.** What about the viability, T/C (second compound 0.00949 µM, first compound 0.949 µM) of the same molecule?
**A.** 51.9%

**Q.** What about the viability, T/C (second compound 0.00949 µM, first compound 3 µM) of the same molecule?
**A.** 42.8%

**Q.** And the viability, T/C (second compound 0.03 µM, first compound 0.00949 µM)?
**A.** 87.7%

**Q.** And the viability, T/C (second compound 0.03 µM, first compound 0.03 µM)?
**A.** 90.9%

**Q.** What about the viability, T/C (second compound 0.03 µM, first compound 0.0949 µM) of the same molecule?
**A.** 77.6%

**Q.** What about the viability, T/C (second compound 0.03 µM, first compound 0.3 µM) of the same molecule?
**A.** 66.6%

**Q.** What about the viability, T/C (second compound 0.03 µM, first compound 0.949 µM) of the same molecule?
**A.** 49.7%

**Q.** What about the viability, T/C (second compound 0.03 µM, first compound 3 µM) of the same molecule?
**A.** 37.9%

**Q.** What about the viability, T/C (second compound 0.0949 µM, first compound 0.00949 µM) of the same molecule?
**A.** 73.5%

**Q.** What about the viability, T/C (second compound 0.0949 µM, first compound 0.03 µM) of the same molecule?
**A.** 85.3%

**Q.** And the viability, T/C (second compound 0.0949 µM, first compound 0.0949 µM)?
**A.** 70.8%

**Q.** And the viability, T/C (second compound 0.0949 µM, first compound 0.3 µM)?
**A.** 69.1%

**Q.** What about the viability, T/C (second compound 0.0949 µM, first compound 0.949 µM) of the same molecule?
**A.** 39.5%

**Q.** And the viability, T/C (second compound 0.0949 µM, first compound 3 µM)?
**A.** 37.8%

**Q.** What about the viability, T/C (second compound 0.3 µM, first compound 0.00949 µM) of the same molecule?
**A.** 66.8%

**Q.** And the viability, T/C (second compound 0.3 µM, first compound 0.03 µM)?
**A.** 71.4%

**Q.** And the viability, T/C (second compound 0.3 µM, first compound 0.0949 µM)?
**A.** 72%

**Q.** What about the viability, T/C (second compound 0.3 µM, first compound 0.3 µM) of the same molecule?
**A.** 62.6%

**Q.** What about the viability, T/C (second compound 0.3 µM, first compound 0.949 µM) of the same molecule?
**A.** 44.2%

**Q.** What about the viability, T/C (second compound 0.3 µM, first compound 3 µM) of the same molecule?
**A.** 34.8%

**Q.** What about the viability, T/C (second compound 0.949 µM, first compound 0.00949 µM) of the same molecule?
**A.** 67.7%

**Q.** And the viability, T/C (second compound 0.949 µM, first compound 0.03 µM)?
**A.** 65%

**Q.** What about the viability, T/C (second compound 0.949 µM, first compound 0.0949 µM) of the same molecule?
**A.** 68%

**Q.** What about the viability, T/C (second compound 0.949 µM, first compound 0.3 µM) of the same molecule?
**A.** 51.5%

**Q.** What about the viability, T/C (second compound 0.949 µM, first compound 0.949 µM) of the same molecule?
**A.** 45%

**Q.** What about the viability, T/C (second compound 0.949 µM, first compound 3 µM) of the same molecule?
**A.** 40.1%

**Q.** And the viability, T/C (second compound 3 µM, first compound 0.00949 µM)?
**A.** 81.6%

**Q.** What about the viability, T/C (second compound 3 µM, first compound 0.03 µM) of the same molecule?
**A.** 78.6%

**Q.** And the viability, T/C (second compound 3 µM, first compound 0.0949 µM)?
**A.** 86%

**Q.** And the viability, T/C (second compound 3 µM, first compound 0.3 µM)?
**A.** 81.2%

**Q.** What about the viability, T/C (second compound 3 µM, first compound 0.949 µM) of the same molecule?
**A.** 54.5%

**Q.** What about the viability, T/C (second compound 3 µM, first compound 3 µM) of the same molecule?
**A.** 50.4%

**Q.** `CC(C)NCC(C(=O)N1CCN(c2ncnc3c2C(C)CC3O)CC1)c1ccc(Cl)cc1` (centres undefined) + C=CC(=O)N1CCN(c2nc(OCC3CCCN3C)nc3c2CCN(c2cccc4cccc(C)c24)C3)CC1CC#N was tested. Which IC50 (second compound 0.00949 µM) did it give?
**A.** > 10 µM

**Q.** What about the IC50 (second compound 0.03 µM) of the same molecule?
**A.** > 10 µM

**Q.** And the IC50 (second compound 0.0949 µM)?
**A.** > 10 µM

**Q.** What about the IC50 (second compound 0.3 µM) of the same molecule?
**A.** 6.17 µM

**Q.** What about the IC50 (second compound 0.949 µM) of the same molecule?
**A.** > 10 µM

**Q.** And the IC50 (second compound 3 µM)?
**A.** > 10 µM

**Q.** What about the viability, T/C (second compound 0.00949 µM, first compound 0.0316 µM) of the same molecule?
**A.** 102%

**Q.** And the viability, T/C (second compound 0.00949 µM, first compound 0.1 µM)?
**A.** 92.3%

**Q.** What about the viability, T/C (second compound 0.00949 µM, first compound 0.316 µM) of the same molecule?
**A.** 98.8%

**Q.** What about the viability, T/C (second compound 0.00949 µM, first compound 1 µM) of the same molecule?
**A.** 66.7%

**Q.** And the viability, T/C (second compound 0.00949 µM, first compound 3.16 µM)?
**A.** 67.7%

**Q.** What about the viability, T/C (second compound 0.00949 µM, first compound 10 µM) of the same molecule?
**A.** 57.2%

**Q.** And the viability, T/C (second compound 0.03 µM, first compound 0.0316 µM)?
**A.** 85.8%

**Q.** What about the viability, T/C (second compound 0.03 µM, first compound 0.1 µM) of the same molecule?
**A.** 91.8%

**Q.** What about the viability, T/C (second compound 0.03 µM, first compound 0.316 µM) of the same molecule?
**A.** 94.8%

**Q.** What about the viability, T/C (second compound 0.03 µM, first compound 1 µM) of the same molecule?
**A.** 61.3%

**Q.** And the viability, T/C (second compound 0.03 µM, first compound 3.16 µM)?
**A.** 65.4%

**Q.** What about the viability, T/C (second compound 0.03 µM, first compound 10 µM) of the same molecule?
**A.** 46.1%

**Q.** And the viability, T/C (second compound 0.0949 µM, first compound 0.0316 µM)?
**A.** 95.4%

**Q.** What about the viability, T/C (second compound 0.0949 µM, first compound 0.1 µM) of the same molecule?
**A.** 97.5%

**Q.** What about the viability, T/C (second compound 0.0949 µM, first compound 0.316 µM) of the same molecule?
**A.** 78.2%

**Q.** What about the viability, T/C (second compound 0.0949 µM, first compound 1 µM) of the same molecule?
**A.** 79.8%

**Q.** What about the viability, T/C (second compound 0.0949 µM, first compound 3.16 µM) of the same molecule?
**A.** 53.4%

**Q.** What about the viability, T/C (second compound 0.0949 µM, first compound 10 µM) of the same molecule?
**A.** 57.4%

**Q.** And the viability, T/C (second compound 0.3 µM, first compound 0.0316 µM)?
**A.** 77.7%

**Q.** And the viability, T/C (second compound 0.3 µM, first compound 0.1 µM)?
**A.** 84.8%

**Q.** What about the viability, T/C (second compound 0.3 µM, first compound 0.316 µM) of the same molecule?
**A.** 84%

**Q.** What about the viability, T/C (second compound 0.3 µM, first compound 1 µM) of the same molecule?
**A.** 71.8%

**Q.** What about the viability, T/C (second compound 0.3 µM, first compound 3.16 µM) of the same molecule?
**A.** 56.4%

**Q.** What about the viability, T/C (second compound 0.3 µM, first compound 10 µM) of the same molecule?
**A.** 45.6%

**Q.** What about the viability, T/C (second compound 0.949 µM, first compound 0.0316 µM) of the same molecule?
**A.** 67.4%

**Q.** And the viability, T/C (second compound 0.949 µM, first compound 0.1 µM)?
**A.** 82.2%

**Q.** And the viability, T/C (second compound 0.949 µM, first compound 0.316 µM)?
**A.** 68.6%

**Q.** And the viability, T/C (second compound 0.949 µM, first compound 1 µM)?
**A.** 58%

**Q.** What about the viability, T/C (second compound 0.949 µM, first compound 3.16 µM) of the same molecule?
**A.** 57.8%

**Q.** And the viability, T/C (second compound 0.949 µM, first compound 10 µM)?
**A.** 56%

**Q.** And the viability, T/C (second compound 3 µM, first compound 0.0316 µM)?
**A.** 83.4%

**Q.** And the viability, T/C (second compound 3 µM, first compound 0.1 µM)?
**A.** 74.5%

**Q.** And the viability, T/C (second compound 3 µM, first compound 0.316 µM)?
**A.** 81.2%

**Q.** What about the viability, T/C (second compound 3 µM, first compound 1 µM) of the same molecule?
**A.** 68.5%

**Q.** And the viability, T/C (second compound 3 µM, first compound 3.16 µM)?
**A.** 49.3%

**Q.** What about the viability, T/C (second compound 3 µM, first compound 10 µM) of the same molecule?
**A.** 51.9%
